Assay results from US6878751B1, “Administration of resveratrol to treat inflammatory respiratory disorders” (Imperial College of Science Technology and Medicine, priority 2000, dated 2005).
Like-named read-outs stand apart in the source and are kept apart here.

Assays:
iNOS = iNOS activity by nitrite and nitrite/nitrate accumulation in cytomix-stimulated human primary epithelial cells; assay type: cell-based; conditions: for EC50: Homo sapiens, Epithelial cell, 24 h
Experimental: The inducible form of the enzyme NO synthase, iNOS(NOS2), which is known to be expressed during inflammation, is thought to be responsible for increased NO levels of asthmatic patients. Agents known to induce iNOS in human primary epithelial cells, such as interleukin-1β, tumor necrosis factor-α, and interferon-γ (cytomix) are useful in assaying resveratrol for inhibition of iNOS expression and activity, and comparing its effect to steroids.
Human primary epithelial cells are cultured from normal donor tissue. Explant cultures of tissue obtained from normal human lung transplant donors provided human primary epithelial (HPE) cells. The HPE cells were cultured in Ham's F12 nutrient medium containing 5% (v/v) fetal calf serum (FCS), 1 μM hydrocortisone, 5 ng/ml EGF (epithelial growth factor), 10 μg/ml insulin, 10 nM retinoic acid, 0.5 μg/ml transferrin, 2 μg/ml triiodothyronine, 1.5 μg/ml NaHCO3, 100 μg/ml penicillin, 100 μg/ml streptomycin and 0.25 μg/m amphotericin B; the cells were incubated at 37° C. in a humidified atmosphere containing 95% (v/v) air, 5% (v/v) CO2. The HPE cells were cultured for the last 24 hours prior to the experimental treatments under the same conditions except that additive free Ham's F12 media was substituted for the supplemented Ham's F12 media described above.
These cells were stimulated for 24 hours with 50 ng/ml cytomix (interferon-γ) in the absence or presence of resveratrol, or one of glucocorticoids, dexamethasone and budenoside. Activity of iNOS is measured by determination of […] and nitrite/nitrate accumulation. Nitrite was measured by a modification of the method of Misko, et al. (1993) Anal. Biochem. 214:11-16. […] The reaction was stopped by addition of 10 μl of 1.4M NaOH, and fluorescense was measured with a Biolite F1 fluorimeter (Labtech, Uckfield, U.K.) set at: 460 nm emission wavelength, 360 nm excitation wavelength, 40-50% sensitivity. Sample nitrite concentration was calculated by reference to a standard curve of known nitrite concentrations, permitting assay sensitivity to 0.1 μM.

[1] = system: IL-8 release, 16HBE-16o^− cells; assay: IL-8 release (ELISA) in IL-1β stimulated 16HBE-16o− cells; assay type: cell-based; conditions: Homo sapiens, 1 ng/ml IL-1β, read-out: EC50 for inhibition of the release of IL-8
Experimental: The human airway epithelial cell line A549 may be employed to study resveratrol inhibition of the release of IL-8 (interleukin 8) and GM-CSF (granulocyte macrophage-colony stimulating factor) by a 1 ng/ml stimulation with IL-1β (interleukin 1β). A549 cells, BEAS-2B cells and 16HBE-16o^− cells were stimulated with 1 ng/ml levels of IL-1β in the presence of resveratrol.
Cells, including the A549 cells, were cultured in Dulbecco's modified Eagle's medium (DMEM) 10% (v/v) fetal calf serum (FCS), 100 μg/ml penicillin and 100 μg/ml streptomycin. IL-8 release was measured by commercially available ELISA kit (R&D Systems).

[2] = system: CRE dependent transcription; assay: CRE luciferase reporter in stably transfected A549 cells; assay type: cell-based, human
Experimental: The expression of inflammatory genes was then evaluated in cells transformed with luciferase reporter genes containing sites for transcription factors (Tf, Tfs). The A549 cells were stably transfected by routine methods with luciferase reporters containing the transcription factors NF-κB, TRE (AP-1, TPA responsive element) and CRE (cAMP responsive element). Luciferase activity of cell lysates resuspended in […] cell lysis buffer mixed (40 mml resuspended lysate: 40 mml assay reagent) was measured using the Luciferase Assay System (Promega), with emitted light measured by a Turner DesignsTD-20/20 luminometer (Steptech Instruments Ltd., Stevenage, U.K.)

COPD patients = assay: Pulmonary resveratrol clinical evaluation in COPD (Example 9); assay type: in vivo, human; conditions: inhaled, 4, 8 or 20 mg/day
Experimental: Pulmonary administration of resveratrol for COPD may be evaluated by the method preceding in Example 8, using the inhaled doses specified in Example 4. Specifically the subgroups receive either 0 (placebo), 4, 8, or 20 mg/day resveratrol in inhaled doses of 0, 1, 2, or 5 mg administered 4 times daily for th duration of the study.

[3] = system: Smokers with no disease or mild COPD; assay: Oral resveratrol for chemoprevention of COPD in smokers (Example 10); assay type: in vivo, human; conditions: 2 to 5 years
Experimental: Resveratrol is evaluated clinically for efficacy in chemoprevention of COPD in smokers. The study is generally patterned after the asthma studies with modifications appropriate to the clinical and histopathologic evaluation of COPD disease, and the references listed in the preceding examples may be applied as appropriate. Smokers with no disease or mild COPD are treated once or more per day with gelatin capsules containing resveratrol. The population of smokers are subdivided into subpopulations: clinically and histopathologically disease free, clinically asymptomatic with histopathologic inflammation and mildly COPD symptomatic, meaning some chronic bronchitis but no pulmonary impairment causing hypoxemia or acidosis. Each subpopulation is divided randomly and blindly into four approximately equal groups that receive either 0 (placebo), 200, 2000, or 3000 mg/day resveratrol […] in oral doses of 0, 50, 500, or 750 mg administered 4 times daily for 2 to 5 years. […]
Patients are medically monitored for clinical symptoms of COPD throughout the study, including onset of symptoms and frequency and severity thereof. […] Forced expiratory volume (FEV) and forced inspiratory volume (FIV) are also evaluated to measure airway patency as a direct measure of clinical morbidity and to determine correlation the histopathologic and other indicators of clinical disease. […]

Compound: Oc1ccc(/C=C/c2cc(O)cc(O)c2)cc1 [Resveratrol, 3,5,4′-trihydroxystilbene]
- inhibition of nitrite formation / accumulation in the cell culture media (iNOS; HPE cells, cytomix 24 hours, steroids at 10^−9 M to 10^−5 M): only agent able to inhibit nitrite formation
- EC50 (iNOS; read-out: EC50 for nitrite accumulation): 3.6 ± 2.9 µM
- EC50 (iNOS; read-out: EC50 for nitrite/nitrate accumulation): 0.88 ± 0.47 µM
- EC50 [1]: 8.9 ± 3.5 µM
- extent of inhibition of CRE dependent transcription [2]: 91%
- EC50 ([2]; Homo sapiens, read-out: EC50 for inhibition of CRE dependent transcription): 30 ± 17 µM
- efficacy in treating COPD (COPD patients): effective for treating COPD
- side effects ([3]; oral, relative to those expected from steroid administration): without significant side effects
- efficacy in chemoprevention of COPD in smokers ([3]; oral, 200, 2000 or 3000 mg/day): effective for chemoprevention of COPD in smokers
